Experiments:
[1] = test system: chick dorsal root ganglia (sensory neurons); assay: Chick dorsal root ganglion cultures and neurite outgrowth; type: cell-based
Method: Dorsal root ganglia were dissected from chick embryos of ten day gestation. Whole ganglion explants were cultured on thin layer Matrigel-coated 12 well plates with Liebovitz L15 plus high glucose media supplemented with 2 mM glutamine and 10% fetal calf serum, and also containing 10 μM cytosine β-D arabinofuranoside (Ara C) at 37° C. in an environment containing 5% CO2. Twenty four hours later, the DRGs were treated with various immunophilin ligands. Forty-eight hours after drug treatment, the ganglia were visualized under phase contrast or Hoffman Modulation contrast with a Zeiss Axiovert inverted microscope. Photomicrographs of the explants were made, and neurite outgrowth was quantitated. Neurites longer than the DRG diameter were counted as positive, with total number of neurites quanitated per each experimental condition. Three to four DRGs are cultured per well, and each treatment was performed in duplicate.
The data for these experiments for representative compounds are presented in the “ED50” column of Table III.

[2] = biological target: FKBP12 (FKBP) (Homo sapiens, UniProt P62942); assay: Ki test procedure: inhibition of peptidyl-prolyl isomerase (rotamase) activity, chymotrypsin-coupled assay; type: biochemical; settings: apparent Ki, substrate N-succinyl-Ala-Ala-Pro-Phe-p-nitroanilide
Chain of FKBP12 (FKBP) (P62942 whole entry, species assumed): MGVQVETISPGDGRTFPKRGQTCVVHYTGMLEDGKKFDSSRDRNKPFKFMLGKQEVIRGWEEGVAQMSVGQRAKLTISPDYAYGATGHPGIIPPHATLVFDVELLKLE
Text: As discussed above, the compounds of the present invention have an affinity, for the FK506 binding protein, particularly FKBP12. The inhibition of the prolyl peptidyl cis-trans isomerase activity of FKBP may be measured as an indicator of this affinity.
Inhibition of the peptidyl-prolyl isomerase (rotamase) activity of the inventive compounds can be evaluated by known methods described in the literature (Harding, et al., Nature, 1989, 341:758-760; Holt et al. J. Am. Chem. Soc., 115:9923-9938). The cis-trans isomerization of an alanine-proline bond in a model substrate, N-succinyl-Ala-Ala-Pro-Phe-p-nitroanilide, is monitored spectrophotometrically in a chymotrypsin-coupled assay, which releases paranitroanilide from the trans form of the substrate. The inhibition of this reaction caused by the addition of different concentrations of inhibitor is determined, and the data is analyzed as a change in first-order rate constant as a function of inhibitor concentration to yield the apparent Ki values. […]
The absorbance at 390 nm versus time is monitored for 90 seconds using a spectrophotometer and the rate constants are determined from the absorbance versus time data files. […]

Ki [2]	SMILES	neurite outgrowth in sensory neurons (photomicrograph) ([1]; 10 pM)	neurite outgrowth in sensory neurons (photomicrograph) ([1]; 100 pM)	neurite outgrowth in sensory neurons (photomicrograph) ([1]; 10 nM)	neurite outgrowth in sensory neurons (photomicrograph) ([1]; 1 pM)
638 nM	CCC(C)(C)C(=O)C(=O)N1CSCC1C(=O)OCCCc1cccnc1 [Compound 2, 3-(3-pyridyl)-1-propyl(2S)-1-(3,3-dimethyl-1,2-dioxopentyl) -2-(4-thiazolidine) carboxylate]	promoting neurite outgrowth	promoting neurite outgrowth	promoting neurite outgrowth	–
215 nM	CCC(C)(C)C(=O)C(=O)N1CSCC1C(=O)OCCCc1ccccc1 [Compound 1, 3-phenyl-1-propyl(2S)-1-(3,3-dimethyl-1,2-dioxopentyl)-2-(4-thiazolidine)carboxylate]	promoting neurite outgrowth	promoting neurite outgrowth	–	promoting neurite outgrowth
